This is an account of results in patent US6545011B2, “Substituted 4,9-dihydrocyclopenta[imn]phenanthridine-5-ones, derivatives thereof and their uses” (Guilford Pharmaceuticals Inc., priority 2000, dated 2003).

“And” between values parts separate entries of the source, which are not always exact repeats. Equal values may be shown once.

One experiment concerns MSU crystal-induced neutrophil recruitment. As to the kind of experiment: Gout model: MSU crystal-induced neutrophil recruitment (peritonitis). The experiment is classed as in vivo, mouse. As to conditions: 45 mg/kg i.p. 1 h prior to 3 mg MSU crystals; 6 h; group C, n=8; vehicle group B 6.30 ± 0.33. The protocol: Male outbread Swiss albino mice (20-22 g body weight) were purchased from Banton and Kingsman (T.O. strain; Hull, Humberside) and maintained on a standard chow pellet diet with tap water ad libitum and a 12:00 h light/dark cycle. All animals were housed for 1 week prior to experimentation to allow body weight to reach 28-30 g.
1,11b-dihydrobenzopyrano[4,3,2-de ]isoquinolin-1-one was dissolved in 100% DMSO at room temperature at a concentration of 45 mg in 2 ml. The compound was then injected into the peritoneal cavity, so as each mouse received a single dose corresponding to 45 mg/2 ml/kg (e.g. 60 μl for a mouse of 30 g). Control mice received DMSO at 2 ml/kg i.p. A third group of mice which were left untreated were added to control for potential effects of the vehicle. The study involved therefore, the following three groups: group A, untreated mice, n=6, group B, DMSO-treated mice, n=8, and group C, mice treated with 1,11b-dihydrobenzopyrano[4,3,2-de ]isoquinolin-1-one, n=8.
MSU crystal-induced neutrophil recruitment was tested as follows. In all cases, mice were treated 1 h after the treatment noted above, with MSU crystals. A homogenous suspension of MSU crystals was obtained by a 30 min rotation. Peritonitis was induced by injection of 3 mg MSU crystals in 0.5 ml PBS (0.1 M, pH 7.4), and the recruitment of neutrophils into the cavity evaluated at the 6 h time point (Getting, et al., 1997, J. Pharmacol. Exp. Ther. 283: 123-130). Animals were then euthanised by CO2 exposure and the peritoneal cavity washed with 3 ml of PBS supplemented with 3 mM EDTA and 25 U/ml heparin.
An aliquot (100 μl) of the lavage fluid was then diluted 1:10 in Turk's solution (0.01% crystal violet in 3% acetic acid). The samples were then vortexed and 10 μl of the stained cell solution were placed in a Neubauer haematocymometer and neutrophils numbers counted using a light microscope (Olympus B061). […]
Data are shown for single mice, and also shown as mean±S.E. of (n) mice per group. Statistical differences were determined by ANOVA, plus Bonferroni test. […]
In the case of `O=C1N=Cc2cccc3c2C1c1ccccc1O3` (centres unmarked) [1,11b-dihydrobenzopyrano[4,3,2-de]isoquinolin-1-one], the “Neutrophils (mean ± S.E.)” value is on record as 2.85 ± 0.34 (8)* 10^6 per mouse.

The experiment is the same for the next values; noted with them: 45 mg/kg i.p. 1 h prior to 3 mg MSU crystals; peritoneal lavage at 6 h; group C, one value per mouse.
Take `O=C1N=Cc2cccc3c2C1c1ccccc1O3` (centres unmarked) [1,11b-dihydrobenzopyrano[4,3,2-de]isoquinolin-1-one]: the “Neutrophil Numbers (single mice)” value was 2.4 10^6 per mouse (2×) and 3.0 10^6 per mouse (2×) and 2.7 10^6 per mouse and 2.1 10^6 per mouse (2×) and 5.1 10^6 per mouse.

Still in this experiment, the particulars now being: 45 mg/kg i.p.; 6 h after MSU crystals.
For `O=C1N=Cc2cccc3c2C1c1ccccc1O3` (centres unmarked) [1,11b-dihydrobenzopyrano[4,3,2-de]isoquinolin-1-one], the “inhibition of cell influx vs. the vehicle group” value is listed as 55%.

The subject of a further experiment is ischemia and reperfusion of the heart.
Assay: not given
As to conditions: rabbit; single injection 1 mg/kg; cited from earlier work.
Consider `Oc1cccc2c(O)nccc12` [1,5-dihydroxyisoquinoline], for which the “reduction in infarct size” value is given as 38-48%.

Still in this experiment, the particulars now being: rabbit; single injection 10 mg/kg, one minute before occlusion or before reperfusion; cited from earlier work.
As for `NC(=O)c1cccc(N)c1` [3-amino-benzamide], the “reduction in infarct size in the heart” value is given as 32-42%.

In another experiment the target is T1, purified recombinant human PARP (Homo sapiens, UniProt P09874).
T1 construct: purchased Trevigan (Gaithersburg, Md.)
T1 sequence (P09874 whole entry): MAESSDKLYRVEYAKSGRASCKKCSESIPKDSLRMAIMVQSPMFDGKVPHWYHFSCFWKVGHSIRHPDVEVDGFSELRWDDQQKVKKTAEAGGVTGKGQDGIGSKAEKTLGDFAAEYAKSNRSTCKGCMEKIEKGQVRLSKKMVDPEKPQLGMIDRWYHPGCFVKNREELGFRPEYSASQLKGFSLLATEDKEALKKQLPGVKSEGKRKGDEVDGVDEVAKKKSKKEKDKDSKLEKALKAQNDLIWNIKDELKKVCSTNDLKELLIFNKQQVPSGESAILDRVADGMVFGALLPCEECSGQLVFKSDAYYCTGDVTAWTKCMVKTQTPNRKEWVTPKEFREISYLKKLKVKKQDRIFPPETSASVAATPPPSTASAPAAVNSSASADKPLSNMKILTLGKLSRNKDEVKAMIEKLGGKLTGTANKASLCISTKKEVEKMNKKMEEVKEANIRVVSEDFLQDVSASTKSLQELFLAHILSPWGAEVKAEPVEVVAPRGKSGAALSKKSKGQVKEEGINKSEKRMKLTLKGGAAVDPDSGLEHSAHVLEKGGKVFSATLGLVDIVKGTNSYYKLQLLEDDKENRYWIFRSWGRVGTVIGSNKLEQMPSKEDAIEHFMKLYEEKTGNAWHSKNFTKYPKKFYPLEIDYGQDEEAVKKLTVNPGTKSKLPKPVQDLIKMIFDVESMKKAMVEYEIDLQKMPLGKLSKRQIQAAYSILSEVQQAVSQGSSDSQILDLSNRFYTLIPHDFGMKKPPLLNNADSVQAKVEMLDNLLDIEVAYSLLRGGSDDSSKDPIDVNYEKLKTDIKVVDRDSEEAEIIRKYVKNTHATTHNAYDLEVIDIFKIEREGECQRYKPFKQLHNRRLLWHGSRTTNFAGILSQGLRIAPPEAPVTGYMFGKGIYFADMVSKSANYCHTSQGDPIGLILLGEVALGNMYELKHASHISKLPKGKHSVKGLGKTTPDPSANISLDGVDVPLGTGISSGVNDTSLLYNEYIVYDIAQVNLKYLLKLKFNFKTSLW
As to the kind of experiment: PARP enzyme assay (IC50), [3H]NAD incorporation. The experiment is classed as biochemical. As to conditions: approximate values, read-out: Inhibition IC50. The protocol:
The reaction is initiated by incubating the mixture at 25° C. After 15 minutes of incubation, the reaction is terminated by adding 500 microliters of ice cold 20% (w/v) trichloroacetic acid. The precipitate formed is transferred onto a glass fiber filter (Packard Unifilter-GF/B) and washed three times with ethanol. After the filter is dried, the radioactivity is determined by scintillation counting.
Using the PARP assay described above, approximate IC50 (μM) values were obtained as shown in the following Table III, which also include specific embodiments of the compounds of the present invention: […]
In general, IC50 refers to the concentration needed to halve the response being measured. Turning to `O=c1[nH]c2cccc3c2c2c(cccc12)C3` [Compound 1, 5,9-dihydro-4[H]cyclopenta[lmn]phenathridin-5-one], the IC50 is 100 nM. The same measure, in the same setting: to `O=c1[nH]c2ccc(S(=O)(=O)O)c3c2c2c(cccc12)C3` [Compound 2, 5,9-Dihydro-5-oxo-4[H]cyclopenta[lmn]phenathridine-1-sulfonic acid] belongs 110 nM; to `O=c1[nH]c2ccc([N+](=O)[O-])c3c2c2c(cccc12)C3` [Compound 4, 5,9-dihydro-1-nitro-4[H]cyclopenta[lmn]phenathridin-5-one], 111 nM. Consider `Nc1ccc2[nH]c(=O)c3cccc4c3c2c1C4` [Compound 5, 5,9-dihydro-1-amino-4[H]cyclopenta[lmn]phenathridin-5-one], for which the IC50 was 60 nM. For the compound `O=c1[nH]c2ccc(S(=O)(=O)N3CCN(c4ccccn4)CC3)c3c2c2c(cccc12)C3` [Compound 6], the IC50 worked out at 380 nM. For `O=c1[nH]c2ccc(S(=O)(=O)NCCN3CCOCC3)c3c2c2c(cccc12)C3` [Compound 8, 5,9-Dihydro-N-[2-(4-morpholinyl)ethyl]-1-oxo-[H]cyclopenta[lmn]phenathridine-1-sulfonamide], the IC50 amounted to 70 nM. The same measure, in the same setting: then `CN1CCN(S(=O)(=O)c2ccc3[nH]c(=O)c4cccc5c4c3c2C5)CC1` [Compound 9, 5,9-Dihydro-1-[(4-methyl-1-piperazinyl)sulfonyl]-4[H]cyclopenta[lmn]phenathridin-5-one], with 130 nM; and `O=c1[nH]c2ccc(S(=O)(=O)NCCc3ccncc3)c3c2c2c(cccc12)C3` [Compound 10], with 70 nM.

For `O=c1[nH]c2ccc(S(=O)(=O)NCCN3CCCCC3)c3c2c2c(cccc12)C3` [Compound 11, 5,9-Dihydro-5-oxo-N-[2-(1-piperidinyl)ethyl]-4[H]cyclopenta[lmn]phenathridine-1-sulfonamide], the IC50 came out at 50 nM.

On to `O=c1[nH]c2ccc(S(=O)(=O)N3CCOCC3)c3c2c2c(cccc12)C3` [Compound 12, 5,9-Dihydro-1-(4-morpholinylsulfonyl)-4[H]cyclopenta[lmn]phenathridin-5-one], for which the IC50 stood at 40 nM. In the case of `CC(=O)Nc1ccc2[nH]c(=O)c3cccc4c3c2c1C4` [Compound 13, 5,9-Dihydro-5-oxo-4[H]cyclopenta[mn]phenathridin-1-yl acetamide], the IC50 is 50 nM. Consider `O=C(Nc1ccc2[nH]c(=O)c3cccc4c3c2c1C4)c1cccc(F)c1` [Compound 14, N-(5,9-Dihydro-5-oxo-4[H]cyclopenta[lmn]phenathridin-1-yl)-3-fluorbenzamide], for which the IC50 turned out to be 80 nM. Same read-out and setting: to `O=c1[nH]c2cccc3c(=O)c4cccc1c4c23` [Compound 16, 9-oxo-5,9-dihydro-4[H]cyclopenta[lmn]phenathridin-5-one] belongs 70 nM; to `O=c1[nH]c2cc(F)cc3c(=O)c4cc(F)cc1c4c23` [Compound 17], 30 nM; to `O=c1[nH]c2cccc3c2c2c(cccc12)C3O` (centres unmarked) [Compound 18], 120 nM. In the case of `O=c1[nH]c2cc(F)cc3c2c2c(cc(F)cc12)C3O` (centres unmarked) [Compound 19], the IC50 is 100 nM.

Take `CC(=O)OC1c2cccc3[nH]c(=O)c4cccc1c4c23` (centres unmarked) [Compound 20]: the IC50 amounted to 810 nM. Turning to `CC(=O)OC1c2cc(F)cc3[nH]c(=O)c4cc(F)cc1c4c23` (centres unmarked) [Compound 21, 5,9-Dihydro-2,7-difluoro-5-oxo-4[H]cyclopenta[lmn]phenathridin-9-yl acetate], the half-inhibitory concentration (IC50) was determined as 360 nM.

On to `O=c1[nH]c2cc(Cl)cc3[nH]c4cc(Cl)cc1c4c23` [Compound 22, 2,7,-Dichloro-5,9-dihydro-4[H]pyrrol[2,3,4,5-lmn]phenathridin-5-one], for which the IC50 amounted to 20 nM.

In the case of “N-(5,9-Dihydro-5-oxo-4[H]cyclopenta[lmn]phenathridin-1-yl)-4-fluorbenzamide [Compound 15]”, the IC50 is 70 nM.

Another experiment relates to PARP.
Assay: not given
The settings on record: read-out: IC50 for inhibiting PARP; reported by Suto et al.; cited from earlier work.
Regarding `O=C1NCCc2c(OCCCCN3CCCCC3)cccc21` [DPQ, 3,4-dihydro-5-[4-(1-piperidinyl)-butoxy]-1(2H)-isoquinolinone], the half-maximal inhibitory concentration (IC50) is 40 nM.
